Reference: US20260365627A1, “NOVEL ECTONUCLEOTIDE PYROPHOSPHATASE / PHOSPHODIESTERASE 1 (ENPP-1) INHIBITORS AND USES THEREOF” (SRAVATHI AI TECHNOLOGY PRIVATE LIMITED, priority 2022, published 2026)
Like-named read-outs stand apart in the source and are kept apart here. Values belong to the compound of their own block, whether it stands above or below them.

Target: T1, Human ENPP-1 (Homo sapiens, UniProt P22413)
T1 sequence (P22413 1-925): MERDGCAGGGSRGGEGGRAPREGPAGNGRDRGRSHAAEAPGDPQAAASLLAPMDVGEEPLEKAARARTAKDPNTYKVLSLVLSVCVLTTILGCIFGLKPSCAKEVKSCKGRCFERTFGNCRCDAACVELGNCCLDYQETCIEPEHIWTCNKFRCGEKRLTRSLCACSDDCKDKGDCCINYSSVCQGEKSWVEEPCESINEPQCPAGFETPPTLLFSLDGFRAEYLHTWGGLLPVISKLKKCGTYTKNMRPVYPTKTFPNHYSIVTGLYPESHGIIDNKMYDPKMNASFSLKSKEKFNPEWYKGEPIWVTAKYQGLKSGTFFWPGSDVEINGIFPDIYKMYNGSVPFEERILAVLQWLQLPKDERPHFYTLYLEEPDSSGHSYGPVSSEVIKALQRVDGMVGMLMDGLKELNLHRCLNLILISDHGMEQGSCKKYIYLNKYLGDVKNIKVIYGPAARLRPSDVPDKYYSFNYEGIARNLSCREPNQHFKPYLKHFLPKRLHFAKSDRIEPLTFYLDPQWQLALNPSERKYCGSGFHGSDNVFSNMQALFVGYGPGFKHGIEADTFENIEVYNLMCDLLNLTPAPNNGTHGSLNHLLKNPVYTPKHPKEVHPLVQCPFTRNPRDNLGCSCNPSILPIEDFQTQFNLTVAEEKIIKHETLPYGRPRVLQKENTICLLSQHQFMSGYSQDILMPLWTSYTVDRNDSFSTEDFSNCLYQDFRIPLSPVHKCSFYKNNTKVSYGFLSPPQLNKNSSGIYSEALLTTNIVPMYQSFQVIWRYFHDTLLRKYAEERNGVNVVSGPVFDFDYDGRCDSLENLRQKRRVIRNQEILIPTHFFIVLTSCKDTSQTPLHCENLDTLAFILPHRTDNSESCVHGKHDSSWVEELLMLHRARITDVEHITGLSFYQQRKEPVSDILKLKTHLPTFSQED
Assay: ENPP-1 Inhibition Assay (cGAMP substrate, AMP Glo luminescence)
Assay type: biochemical
Conditions: Human ENPP-1 3 nM, 5 μM cGAMP, pH 7.4, 40 μM HSA
Method: Assay method: Human ENPP-1 at 3 nM prepared in pH 7.4 was incubated with 5 μM cGAMP substrate with the test samples prepared in buffer with pH 7.4 along with 40 μM HSA. The reaction was incubated at RT for 3 hrs. Post incubation, the reaction was stopped by heating the contents at 95 °C for 10 mins. 10 μl of the solution was added to 384-well plate to which 10 μl of AMP Glo reagent-1 was added and incubated for 60 mins at 25 °C. After the incubation, 20 μl of AMP detection solution was added to each well with the enzyme reaction and incubated for 60 mins at 25 °C. The luminescence signal (RLU) was recorded using SpectraMax I3X plate reader.
The luminescence signal is measured as a function of concentration of the inhibitor. If the inhibitor molecule is active, as the concentration of the inhibitor increases, the luminescence value (referred to as OD) decreases. % Inhibition is then calculated as
% Inhibition=((OD of Control−OD of sample)/OD of Control)×100
In this disclosure, the IC50 value of an inhibitor molecule is measured as the concentration of inhibitor which inhibits growth of 50% of the human ENPP-1. A graph of inhibitor concentration on X-axis vs. percentage inhibition on Y-axis is drawn and the […] is measured as the IC50 value.

[1] = RT 3 hrs, read-out: IC50 values of compounds of the invention, <100 nM
[2] = racemate and enantiomers separated by chiral HPLC, read-out: IC50 value range (enantiomers of SAPTI012S006)
[3] = RT 3 hrs, read-out: IC50 values of compounds of the invention, 1-10 uM
[4] = RT 3 hrs, read-out: IC50 values of compounds of the invention, >10 uM
[5] = RT 3 hrs, read-out: IC50 values of compounds of the invention, 0.1-1 uM

- IC50 [1]: < 100 nM
- IC50 [2]: < 100 nM
SMILES: COc1cc2ncnc(N=S(C)(=O)c3ccc(B(O)O)cc3)c2cc1OC (racemic) [SAPTI012S006]

- IC50 [2]: > 100 nM
SMILES: COc1cc2ncnc(N=S(C)(=O)c3ccc(B(O)O)cc3)c2cc1OC (single isomer, unassigned) [SAPTI012S006-E1]

- IC50 [2]: < 100 nM
SMILES: COc1cc2ncnc(N=S(C)(=O)c3ccc(B(O)O)cc3)c2cc1OC (single isomer, unassigned) [SAPTI012S006-E2]

- IC50 [3]: 1000 to 10000 nM
SMILES: COc1cc2ncnc(N=S(C)(=O)c3ccc(P(=O)(O)O)cc3)c2cc1OC (stereo not drawn) [SAPTI012S001]

- IC50 [3]: 1000 to 10000 nM
SMILES: COc1cc2ncnc(N=S(C)(=O)c3cccc(P(=O)(O)O)c3)c2cc1OC (stereo not drawn) [SAPTI012S002]

- IC50 [4]: > 10000 nM
SMILES: COc1cc2ncnc(N=S(C)(=O)c3ccc(NS(N)(=O)=O)cc3)c2cc1OC (stereo not drawn) [SAPTI012S003, N-{4-[N-(6,7-dimethoxyquinazoline-4-)-S-methanesulfonimidoyl]phenyl}sulfuric diamide]

- IC50 [1]: < 100 nM
SMILES: COc1cc2ncnc(N=S(C)(=O)c3cccc(B(O)O)c3)c2cc1OC (stereo not drawn) [SAPTI012S005]

- IC50 [5]: 100 to 1000 nM
SMILES: COc1cc2ncnc(N=S(C)(=O)c3ccc(NC(N)=S)cc3)c2cc1OC (stereo not drawn) [SAPTI012S007]

- IC50 [1]: < 100 nM
SMILES: COc1cc2ncnc(N=S(C)(=O)c3ccc(S(C)(=N)=O)cc3)c2cc1OC (stereo not drawn) [SAPTI012S008]

- IC50 [1]: < 100 nM
SMILES: COc1cc2ncnc(N=S(C)(=O)c3ccc(NC(=O)Nc4ccccc4)cc3)c2cc1OC (stereo not drawn) [SAPTI012S009]

- IC50 [5]: 100 to 1000 nM
SMILES: COc1cc2ncnc(N=S(C)(=O)c3cccc(NS(N)(=O)=O)c3)c2cc1OC (stereo not drawn) [SAPTI012S010]

- IC50 [1]: < 100 nM
SMILES: COc1cc2ncnc(N=S(C)(=O)c3cccc(NC(N)=O)c3)c2cc1OC (stereo not drawn) [SAPTI012S011]

- IC50 [5]: 100 to 1000 nM
SMILES: COc1cc2ncnc(N=S(C)(=O)c3cccc(N(C)C(N)=O)c3)c2cc1OC (stereo not drawn) [SAPTI012S012]

- IC50 [3]: 1000 to 10000 nM
SMILES: COc1cccc2c(N=S(C)(=O)c3cccc(N(C)C(N)=O)c3)ncnc12 (stereo not drawn) [SAPTI012S013]

- IC50 [5]: 100 to 1000 nM
SMILES: COc1cc2ncnc(N=S(C)(=O)c3ccc(C(=O)O)cc3)c2cc1OC (stereo not drawn) [SAPTI012S014]

- IC50 [1]: < 100 nM
SMILES: COc1cc2ncnc(N=S(C)(=O)c3ccc(CNC(N)=O)cc3)c2cc1OC (stereo not drawn) [SAPTI012S015]

- IC50 [1]: < 100 nM
SMILES: COc1cc2ncnc(N=S(C)(=O)c3ccc(C(N)=O)cc3)c2cc1OC (stereo not drawn) [SAPTI012S016]

- IC50 [4]: > 10000 nM
SMILES: COc1cccc2c(N=S(C)(=O)c3ccc(C(N)=O)cc3)ncnc12 (stereo not drawn) [SAPTI012S017]

- IC50 [3]: 1000 to 10000 nM
SMILES: COc1cc2nccc(N=S(C)(=O)c3ccc(C(N)=O)cc3)c2cc1OC (stereo not drawn) [SAPTI012S018]

- IC50 [3]: 1000 to 10000 nM
SMILES: Cn1ccc2c(N=S(C)(=O)c3ccc(C(N)=O)cc3)ncnc21 (stereo not drawn) [SAPTI012S019]

- IC50 [3]: 1000 to 10000 nM
SMILES: COc1cccc2c(N=S(C)(=O)c3ccc(C(N)=O)cc3)ccnc12 (stereo not drawn) [SAPTI012S020]

- IC50 [1]: < 100 nM
SMILES: COc1cc2ncnc(N=S(C)(=O)c3cccc(C(=O)O)c3)c2cc1OC (stereo not drawn) [SAPTI012S021]

- IC50 [5]: 100 to 1000 nM
SMILES: COc1cc2ncnc(N=S(C)(=O)c3cccc(C(N)=O)c3)c2cc1OC (stereo not drawn) [SAPTI012S022]

- IC50 [4]: > 10000 nM
SMILES: COc1cc2ncnc(N=S(C)(=O)c3cccc(CN)c3)c2cc1OC (stereo not drawn) [SAPTI012S023]

- IC50 [1]: < 100 nM
SMILES: COc1cc2ncnc(N=S(C)(=O)c3cccc(CNC(N)=O)c3)c2cc1OC (stereo not drawn) [SAPTI012S024]

- IC50 [5]: 100 to 1000 nM
SMILES: COc1cc2ncnc(N=S(C)(=O)c3ccc(CCP(=O)(O)O)cc3)c2cc1OC (stereo not drawn) [SAPTI012S025]

- IC50 [4]: > 10000 nM
SMILES: COc1cc2ncnc(N=S3(=O)CCC(C)(C)c4cc(P(=O)(O)O)ccc43)c2cc1OC (stereo not drawn) [SAPTI012S026]

- IC50 [4]: > 10000 nM
SMILES: COc1cc2ncnc(N=S(=O)(CCCP(=O)(O)O)c3ccccc3)c2cc1OC (stereo not drawn) [SAPTI012S027]

- IC50 [1]: < 100 nM
SMILES: COc1cc2ncnc(N=S(C)(=O)c3cccc4c(P(=O)(O)O)cccc34)c2cc1OC (stereo not drawn) [SAPTI012S028]

- IC50 [1]: < 100 nM
SMILES: COc1cc2ncnc(N=S(C)(=O)c3cccc4c(NC(N)=O)cccc34)c2cc1OC (stereo not drawn) [SAPTI012S029]

- IC50 [1]: < 100 nM
SMILES: COc1cc2ncnc(N=S(=O)(c3cccc(NC(N)=O)c3)C3CCCC3)c2cc1OC (stereo not drawn) [SAPTI012S030]

- IC50 [1]: < 100 nM
SMILES: COc1cc2ncnc(N=S(=O)(c3ccc(P(=O)(O)O)cc3)C(C)C)c2cc1OC (stereo not drawn) [SAPTI012S031]

- IC50 [5]: 100 to 1000 nM
SMILES: COc1cc2ncnc(N=S(=O)(c3cccc(NC(N)=O)c3)C3CC3)c2cc1OC (stereo not drawn) [SAPTI012S032]

- IC50 [4]: > 10000 nM
SMILES: COc1cc2ncnc(N=S(=O)(c3cccc(NC(N)=O)c3)C(C)C)c2cc1OC (stereo not drawn) [SAPTI012S033]

- IC50 [5]: 100 to 1000 nM
SMILES: COc1cc2ncnc(N=S(=O)(c3ccccc3)c3ccc(NC(N)=O)cc3)c2cc1OC (stereo not drawn) [SAPTI012S034]

- IC50 [5]: 100 to 1000 nM
SMILES: COc1cccc2c(N=S(C)(=O)c3ccc(B(O)O)cc3)ncnc12 (stereo not drawn) [SAPTI012S035]

- IC50 [1]: < 100 nM
SMILES: COc1cc2nccc(N=S(C)(=O)c3ccc(B(O)O)cc3)c2cc1OC (stereo not drawn) [SAPTI012S036]

- IC50 [4]: > 10000 nM
SMILES: Cn1ccc2c(N=S(C)(=O)c3ccc(B(O)O)cc3)ncnc21 (stereo not drawn) [SAPTI012S037]

- IC50 [4]: > 10000 nM
SMILES: CS(=O)(=Nc1ncnc2ccc(F)cc12)c1ccc(B(O)O)cc1 (stereo not drawn) [SAPTI012S038]

- IC50 [3]: 1000 to 10000 nM
SMILES: COc1cccc2ncnc(N=S(C)(=O)c3ccc(B(O)O)cc3)c12 (stereo not drawn) [SAPTI012S039]

- IC50 [1]: < 100 nM
SMILES: COc1nccc2c(N=S(C)(=O)c3ccc(B(O)O)cc3)ncnc12 (stereo not drawn) [SAPTI012S040]

- IC50 [4]: > 10000 nM
SMILES: CS(=O)(=Nc1ncnc2ccccc12)c1ccc(B(O)O)cc1 (stereo not drawn) [SAPTI012S041]

- IC50 [1]: < 100 nM
SMILES: COc1cc2ncnc(N=S(C)(=O)c3ccc(CC(N)=O)cc3)c2cc1OC (stereo not drawn) [SAPTI012S042]

- IC50 [3]: 1000 to 10000 nM
SMILES: COc1cc2ncnc(N=S(C)(=O)c3ccc(F)c(B(O)O)c3)c2cc1OC (stereo not drawn) [SAPTI012S043]
